Data published in publication PMC8576102, “Structure–Activity Relationship of Novel Second-Generation Synthetic Cathinones: Mechanism of Action, Locomotion, Reward, and Immediate-Early Genes” (Frontiers in Pharmacology, 2021).

Columns and labels:
[1] = target: T1, hDAT (Homo sapiens, UniProt Q01959); assay: Uptake inhibition assay, [3H]MPP+ uptake in transfected HEK293 cells; type: cell-based; conditions: for hDAT/hSERT ratio: 1/DAT IC50: 1/SERT IC50
T1 construct: YFP (yellow-fluorescent protein); expressed in transfected cells
Protocol: (§1) Human embryonic kidney (HEK293) cells stably expressing the yellow-fluorescent protein (YFP)-tagged version of the human isoforms of SERT (abbreviated as SERT) and DAT (abbreviated as DAT) were used for the uptake inhibition and release assays. The generation and maintenance of stable, monoclonal cell lines expressing these transporters was conducted as described by ([Mayer F. P. et al., 2016]; [Mayer et al., 2016 FP.]). HEK293 cells were maintained in DMEM supplemented with heat-inactivated 10% FBS, 100 µg/100 ml streptomycin, 100 U/ml penicillin, and Geneticin (G418; 50 μg/ml) and cultured in a humidified atmosphere (5% CO2, 37°C). The cells were seeded at a density of 0.36 million cells/well onto 96-well plates previously coated (24 h) with poly-D-lysine (PDL).
(§2) The medium was removed and immediately replaced with 200 µL/well of Krebs-HEPES buffer (KHB; 10 mM HEPES, 120 mM NaCl, 3 mM KCl, 2 mM CaCl2·2H2O, 2 mM MgCl2·6H2O, 20 mM D-glucose; pH 7.3). The cells were pre-incubated with different concentrations of the drug in KHB at a final volume of 50 µL/well for 5 min (DAT, SERT). Immediately after, the pre-incubation solution was removed and the cells were incubated with the tritiated substrates, 0.02 µM [^3H]MPP^+ for the DAT (3 min) and 0.1 µM [^3H]5-HT for the SERT (1 min), along with different concentrations of the drug in KHB. Finally, the [^3H]substrate was removed and the cells were washed with ice-cold KHB followed by the addition of sodium dodecyl sulfate (SDS) 1%. The lysate was then added to the scintillation fluid, and the radioactivity was quantified with a beta-scintillation counter (Perkin Elmer, Waltham, MA, United States).
(§3) The uptake in the absence of the drug compound was normalized to 100%, being the percentage of the uptake in the presence of different concentrations of the drug expressed as a percentage thereof. 3–4 independent experiments were performed in duplicate.
(§4) Data were expressed as mean ± SEM. Competition curves were plotted and fitted by non-linear regression, and data were best fitted to a sigmoidal dose-response curve to obtain an IC50 value. 1/DAT IC50: 1/SERT IC50 was used to calculate transporter ratios. Data from batch release assays were statistically analyzed with a mixed-effects model, employing Šidák’s correction for multiple comparisons. One-way/two-way ANOVA or two-way ANOVA of repeated measures, followed by Tukey’s or Dunnett’s post hoc test, was also used when appropriate. The α error probability was set at 0.05 (p < 0.05). The size group for each experiment and statistical results are shown in the corresponding legend of figures. Statistical calculations were performed using GraphPad Prism (GraphPad Software, San Diego, CA, United States).

[2] = target: T2, hSERT (Homo sapiens, UniProt P31645); assay: Uptake inhibition assay, [3H]5-HT uptake in transfected HEK293 cells; type: cell-based
T2 construct: YFP (yellow-fluorescent protein); expressed in transfected cells
Protocol: as §1, §2, §3, §4

[3] = tested on: T3, SERT; assay: Batch release assay, [3H]5-HT release from SERT-expressing HEK293 cells; type: cell-based, human; conditions: for [3H]5-HT release at the SERT (in words): compound close to its IC50, KHB vs KHB + monensin 10 µM
T3 construct: YFP (yellow-fluorescent protein); expressed in transfected cells
Protocol: as §1
HEK293 cells expressing the transporter of interest were preloaded with the tritiated substrate 0.08 μM [^3H]5-HT (SERT) or 0.1 μM [^3H]MPP^+ (DAT) in KHB (50 μL/well) for 20 min (5% CO2, 37°C). Subsequently, the cells were washed three times using KHB (200 μL/well) at room temperature. Afterward, a pre-incubation step of 10 min in KHB or in KHB + monensin (Mon) 10 μM was done. […] To determine the specificity of drug-induced reverse transport, selective transporter inhibitors 0.05 μM paroxetine (SERT) and 0.5 μM of GBR12909 (DAT) and effective releasers 10 μM p-chloroamphetamine (PCA; SERT) and 10 μM d-amphetamine (DAT) were used (Supplementary Figure S1). The resulting supernatant was collected and transferred to a new well every 2 min (four times for KHB/Mon and five times for each tested compound). Three independent experiments were performed in duplicate. Liquid scintillation cocktail was added to the wells with remaining cells (200 μL) and with the transferred supernatant (100 μL) and to the wells used for total uptake and activity measurements (200 μL). Total radioactivity present in the supernatant and in the remaining cells was set as 100%, and the amount of [^3H] substrate present in the supernatant was expressed as percentage of the total.
as §4

[4] = tested on: Swiss CD-1 mice; assay: Horizontal locomotor activity (HLA); type: in vivo; conditions: for HLA after 30 mg/kg compared to the medium dose (10 mg/kg): 30 mg/kg vs 10 mg/kg i.p.; for HLA vs saline at the lowest dose: 3 mg/kg i.p., 60 min; for Persistence of the increase in locomotor activity: 10 mg/kg i.p.
[5] = tested on: Arc mRNA; assay: Arc mRNA expression (qPCR) in ventral and dorsal striatum; type: in vivo, mice; conditions: 10 mg/kg i.p., 120 min after administration, vs saline
Protocol: (§5) Mice were injected with an acute dose of 10 mg/kg i.p. of the corresponding synthetic cathinone or saline solution. The dose was chosen according to the behavioral results obtained since it caused significant response in both CPP and HLA tests in all compounds tested. 30 min or 2 h post-administration, mice were sacrificed by cervical dislocation and the VS, DS, and mPFC were dissected out ([Paxinos and Franklin, 2004]) using a mouse brain acrylic matrix (Agnthos, Sweden) and stored at -80°C until use. Total RNA was isolated following a standard TRIsure reagent–chloroform extraction protocol ([Duart-Castells et al., 2019]).
(§6) Reverse transcription polymerase chain reaction (RT-PCR) was carried out to obtain complementary DNA (cDNA) by using the High Capacity cDNA Reverse Transcription Kit (Applied Biosystems) and the Veriti thermal cycler (Applied Biosystems, Foster, CA, United States). Synthesis of cDNA was obtained by mixing 1,000 ng of total RNA with the corresponding volumes of each kit reagent to a final volume of 20 μL. Quantitative real-time polymerase chain reaction (qPCR) was performed by using the StepOnePlus^TM Real-Time PCR System and TaqMan PCR Master Mix (Applied Biosystems, Foster, CA, United States). 25 ng of cDNA was loaded in a final volume of 20 μL containing sequence-specific primers and TaqMan probes (Mm01204954_g1 for Arc, Mm04230607_s1 for bdnf, Mm00487425_m1 for c-fos, and Mm00607939_s1 for β-actin). Each sample was tested in duplicate. qPCR conditions were 2 min at 50°C, 10 min at 95°C, 40 cycles/15 s at 95°C, and 60 s at 60°C. Changes in gene expression were defined by using the comparative Ct method for each experimental sample. Gene expression was normalized by using the mean of Ct values of the housekeeping gene β-actin.

[6] = tested on: c-fos mRNA; assay: c-fos mRNA expression (qPCR) in ventral and dorsal striatum; type: in vivo, mice; conditions: 10 mg/kg i.p., vs saline; for c-fos expression in the DS, 120 min: 120 min post injection; for c-fos expression in the VS, 120 min: 120 min after administration
Protocol: as §5, §6

[7] = tested on: Arc mRNA; parameters: method as in Giannotti et al., 2017; conditions: 30 min and 2 h after administration; ref Giannotti et al., 2017; cited from earlier work
[8] = tested on: Swiss CD-1 mice; assay: Conditioned place preference (CPP); type: in vivo; conditions: 30 mg/kg i.p.
Protocol: For the behavioral and gene expression experiments, male Swiss CD-1 mice (Janvier, Le Genest, France) weighing 30–35 g (6–8 weeks old) were used. With the aim of reducing the number of animals and minimize their suffering, animal procedures were performed in accordance with the ARRIVE guidelines. All animal care and experimental protocols in this study were in accordance with the guidelines of the European Community Council (2010/63/EU), as amended by Regulation (EU) 2019/1010, and approved by the Animal Ethics Committee of the University of Barcelona under the supervision of the Autonomous Government of Catalonia. The animals were housed in temperature-controlled conditions (22 ± 1°C) under a 12 h light/dark cycle and had free access to food and drinking water. During the study, the animals were supervised immediately after injection and during the behavioral procedure as well as 24 h after injection, and different parameters were visually evaluated for humane endpoints, such as self-mutilations, strange vocalizations, abnormal posture, or a greater weight loss than 20%. The sample size was determined using GPower software. […]
The rewarding effects were determined using a place conditioning paradigm as described by [Duart-Castells et al. (2019]). […] The time spent in each compartment was recorded (Smart 3.0, Panlab, Spain). […]

[9] = tested on: bdnf mRNA; assay: bdnf mRNA expression (qPCR) in medial prefrontal cortex; type: in vivo, mice; conditions: 10 mg/kg i.p., 120 min after administration, vs saline
Protocol: as §5
Reverse transcription polymerase chain reaction (RT-PCR) was carried out to obtain complementary DNA (cDNA) by using the High Capacity cDNA Reverse Transcription Kit (Applied Biosystems) and the Veriti thermal cycler (Applied Biosystems, Foster, CA, United States). Synthesis of cDNA was obtained by mixing 1,000 ng of total RNA with the corresponding volumes of each kit reagent to a final volume of 20 μL. Quantitative real-time polymerase chain reaction (qPCR) was performed by using the StepOnePlus^TM Real-Time PCR System and TaqMan PCR Master Mix (Applied Biosystems, Foster, CA, United States). […]

T2 sequence (P31645 whole entry): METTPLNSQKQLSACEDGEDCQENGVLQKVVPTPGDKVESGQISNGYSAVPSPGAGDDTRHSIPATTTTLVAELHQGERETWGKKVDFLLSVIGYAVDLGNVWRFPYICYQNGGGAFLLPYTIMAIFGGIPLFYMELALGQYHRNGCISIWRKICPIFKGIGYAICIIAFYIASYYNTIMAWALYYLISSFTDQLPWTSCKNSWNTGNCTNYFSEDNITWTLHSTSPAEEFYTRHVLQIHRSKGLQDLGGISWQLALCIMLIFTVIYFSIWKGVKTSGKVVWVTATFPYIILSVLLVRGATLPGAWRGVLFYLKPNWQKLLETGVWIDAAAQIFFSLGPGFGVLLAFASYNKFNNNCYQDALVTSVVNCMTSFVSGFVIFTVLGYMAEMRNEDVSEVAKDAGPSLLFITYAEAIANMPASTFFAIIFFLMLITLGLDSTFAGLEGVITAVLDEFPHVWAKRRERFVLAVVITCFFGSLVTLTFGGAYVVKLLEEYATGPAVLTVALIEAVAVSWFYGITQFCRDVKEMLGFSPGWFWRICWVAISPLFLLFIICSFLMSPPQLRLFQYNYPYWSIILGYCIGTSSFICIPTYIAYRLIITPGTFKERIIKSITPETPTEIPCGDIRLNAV
T1 sequence (Q01959 whole entry): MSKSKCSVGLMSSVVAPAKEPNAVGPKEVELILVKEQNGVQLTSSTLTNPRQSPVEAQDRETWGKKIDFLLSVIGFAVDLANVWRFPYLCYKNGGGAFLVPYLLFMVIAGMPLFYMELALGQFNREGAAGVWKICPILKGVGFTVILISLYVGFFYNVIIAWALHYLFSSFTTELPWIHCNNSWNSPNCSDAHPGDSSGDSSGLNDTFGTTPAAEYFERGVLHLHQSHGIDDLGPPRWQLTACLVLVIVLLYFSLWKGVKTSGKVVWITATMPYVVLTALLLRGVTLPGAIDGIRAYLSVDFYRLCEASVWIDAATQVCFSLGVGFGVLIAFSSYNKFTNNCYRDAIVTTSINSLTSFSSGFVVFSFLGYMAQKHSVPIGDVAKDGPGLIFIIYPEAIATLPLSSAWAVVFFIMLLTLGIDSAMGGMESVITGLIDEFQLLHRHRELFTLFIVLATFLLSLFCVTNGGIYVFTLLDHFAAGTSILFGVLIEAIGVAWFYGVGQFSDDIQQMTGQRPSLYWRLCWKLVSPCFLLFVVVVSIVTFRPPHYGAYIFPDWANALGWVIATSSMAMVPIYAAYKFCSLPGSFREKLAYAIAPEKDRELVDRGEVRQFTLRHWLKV

| SMILES | IC50 [1] [µM] | hDAT/hSERT ratio [1] | IC50 [2] [µM] | [3H]5-HT release at the SERT (in words) [3] | HLA after 30 mg/kg compared to the medium dose (10 mg/kg) [4] | Arc gene expression in the DS, 120 min [5] | Arc gene expression in the VS, 120 min [5] | c-fos expression in the DS, 30 min ([6]; 30 min after injection) | c-fos expression in the DS, 120 min [6] | Distance traveled ([4]; 10 mg/kg, independent experiment, N = 15) | Arc mRNA levels in the striatum after acute injection [7] | HLA vs saline at the lowest dose [4] | Persistence of the increase in locomotor activity [4] | c-fos expression in the VS, 120 min [6] | [3H]5-HT release at SERT-expressing HEK293 cells, max. ([3]; compound close to its IC50 (NEP 6 µM)) | CPP rewarding effects vs saline at the highest dose [8] | c-fos expression in the VS, 30 min ([6]; 30 min after injection) | bdnf mRNA levels in the mPFC, 120 min [9] |
| --- | --- | --- | --- | --- | --- | --- | --- | --- | --- | --- | --- | --- | --- | --- | --- | --- | --- | --- |
| CCCC(NC)C(=O)c1ccc(C)cc1 (stereo not drawn) [4-MPD, 4’-methyl-α-methylaminovalerophenone] | 0.29 ± 0.05 | 108 | 30.9 ± 6.23 | most potent | significant increase |  |  |  |  |  |  |  |  |  |  |  |  |  |
| CCCC(NCC)C(=O)c1ccc(C)cc1 (stereo not drawn) [4-MeAP, 4’-methyl-α-ethylaminovalerophenone] | 0.14 ± 0.02 | 93 | 13.3 ± 0.89 | most potent | significant increase | significant increase | significant increase | significant overexpression | increased |  |  |  |  |  |  |  |  |  |
| COC(=O)[C@H]1[C@@H](OC(=O)c2ccccc2)C[C@@H]2CC[C@H]1N2C [Cocaine, reference compound] |  |  |  |  |  |  |  |  |  | 16,018 ± 1,118 cm |  |  |  |  |  |  |  |  |
| CCCC(C(=O)c1ccc2c(c1)OCO2)N1CCCC1 (stereo not shown) [MDPV, 3,4-methylenedioxypyrovalerone] |  |  |  |  |  |  |  |  |  |  | increased |  |  |  |  |  |  |  |
| CCCC(NCC)C(=O)c1ccccc1 (stereo not drawn) [N-Ethyl-pentedrone, α-ethylaminovalerophenone] | 0.1 ± 0.03 | >1,000 | 127 ± 5.14 | most potent | ceiling effect | significant increase | significant increase | significant overexpression | increased |  |  | increase | more than 1 hour | significant increase |  |  |  |  |
| CCCC(NCC)C(=O)c1ccc2c(c1)OCO2 (stereo not drawn) [N-Ethyl-pentylone, 3’,4’-methylendioxy-α-ethylaminovalerophenone] | 0.13 ± 0.01 | 51 | 6.37 ± 0.09 | smallest | significant decrease | significant increase | significant increase | increased |  |  |  | increase | more than 1 hour |  | ≈ 5 % total cpm | significant increase | significant overexpression | significant overexpression |
| CCCC(NC)C(=O)c1ccccc1 (stereo not drawn) [Pentedrone, α-methylaminovalerophenone] | 0.21 ± 0.02 | 666 | 138 ± 13.4 | milder release | ceiling effect |  |  |  | increased |  |  |  |  | significant increase |  |  |  |  |
| CCCC(NC)C(=O)c1ccc2c(c1)OCO2 (stereo not drawn) [Pentylone, 3’,4’-methylendioxy-α-methylaminovalerophenone] | 0.51 ± 0.07 | 45 | 23.2 ± 2.68 | milder release | significant increase | significant increase | significant increase |  | increased |  |  |  |  |  |  |  |  |  |
| CCCC(C(=O)c1ccccc1)N1CCCC1 (stereo not drawn) [α-PVP] |  |  |  |  |  |  |  |  |  |  | did not alter |  |  |  |  |  |  |  |
